Experiments:
WT mice = assay: Voluntary wheel activity and EDL specific force in WT (C57BL/6) mice; type: in vivo, mouse; conditions: 50 mg/kg/d
Protocol: Voluntary activity on wheel, body weight, and average water consumption were measured in the first 3 weeks. Specific muscle force was measured after 4 weeks of treatment, at the end of the study.
Distance traveled (Km/day) over a 24 hr period was analyzed as an index of improved functional activity (see, DMD_M.2.1.002 SOP at http://www.treat-nmd.eu/). At the conclusion of the study, Extensor digitorum longus (EDL) muscle was isolated for muscle force analysis as further described hereinbelow. Blood was collected from each mouse by retro-orbital bleeds at the end of the study (after end of dark cycle—about 7 AM) to assess drug plasma concentrations. Experiments were blinded.
At the end of the study, EDL muscle was dissected from hind limbs for isometric force analysis using the 407A Muscle Test System from Aurora Scientific (Aurora, Ontario, Canada). […] Force-frequency relationships were determined by triggering contraction using incremental stimulation frequencies (5-250 Hz for 200 ms at suprathreshold voltage). […] At the end of the force measurement, the length (Lo) of the EDL muscle while sutured in the Aurora system was measured excluding the tendons. […] The cross-sectional area (mm^2) of the EDL muscle was calculated by dividing the EDL muscle weight by the EDL muscle length and the mammalian muscle density constant of […] (Yamada, T., et al. Arthritis and rheumatism 60:3280-3289). […]

RyR1 = target: T1, RyR1 (Mus musculus, UniProt E9PZQ0); assay: Calstabin1 rebinding to RyR1 in isoproterenol treated mice; type: in vivo; conditions: isoproterenol 0.5 mg/kg/hr plus compound in osmotic pumps, five days; compared with 3.6 mM S36
T1 construct: RyR1 from aged (24 months) mice is oxidized, cysteine-nitrosylated, and depleted of calstabin1; host or cells: mice (in vivo)
Text: Isoproterenol, a beta adrenergic receptor agonist, induces heart failure in mice via overstimulation of the beta adrenergic receptor. Concurrent with this is the activation of PKA, phosphorylation of the RyR2 on the SR, and decreased interaction of calstabin2 (FKBP12.6) to RyR2. A similar cascade of events occurs in skeletal muscle, wherein RyR1 is phosphorylated, leading to decreased binding of calstabin1 (FKBP12) to RyR1.
As described in detail in International publication no. WO2008/064264, the contents of which are incorporated by reference herein, chronic isoproterenol treatment to a wild-type mouse offers a fast and reliable method for inducing changes in RyR biochemistry that could be readily quantified. These changes include increased RyR phosphorylation and concomitant decreased calstabin binding.
C57Bl/6 mice were maintained and studied according to approved protocols. The synthetic beta-adrenergic agonist, isoproterenol (ISO) was obtained from Sigma (165627) and prepared as a 100 mg/ml stock in water. […]
The loaded osmotic pumps were implanted subcutaneously by the following steps. The recipient mouse was anesthetized with 1.5-2% isoflurane in O2 administered at 0.6 L/min, and its weight was then measured and recorded. […]

T1 sequence (E9PZQ0 whole entry): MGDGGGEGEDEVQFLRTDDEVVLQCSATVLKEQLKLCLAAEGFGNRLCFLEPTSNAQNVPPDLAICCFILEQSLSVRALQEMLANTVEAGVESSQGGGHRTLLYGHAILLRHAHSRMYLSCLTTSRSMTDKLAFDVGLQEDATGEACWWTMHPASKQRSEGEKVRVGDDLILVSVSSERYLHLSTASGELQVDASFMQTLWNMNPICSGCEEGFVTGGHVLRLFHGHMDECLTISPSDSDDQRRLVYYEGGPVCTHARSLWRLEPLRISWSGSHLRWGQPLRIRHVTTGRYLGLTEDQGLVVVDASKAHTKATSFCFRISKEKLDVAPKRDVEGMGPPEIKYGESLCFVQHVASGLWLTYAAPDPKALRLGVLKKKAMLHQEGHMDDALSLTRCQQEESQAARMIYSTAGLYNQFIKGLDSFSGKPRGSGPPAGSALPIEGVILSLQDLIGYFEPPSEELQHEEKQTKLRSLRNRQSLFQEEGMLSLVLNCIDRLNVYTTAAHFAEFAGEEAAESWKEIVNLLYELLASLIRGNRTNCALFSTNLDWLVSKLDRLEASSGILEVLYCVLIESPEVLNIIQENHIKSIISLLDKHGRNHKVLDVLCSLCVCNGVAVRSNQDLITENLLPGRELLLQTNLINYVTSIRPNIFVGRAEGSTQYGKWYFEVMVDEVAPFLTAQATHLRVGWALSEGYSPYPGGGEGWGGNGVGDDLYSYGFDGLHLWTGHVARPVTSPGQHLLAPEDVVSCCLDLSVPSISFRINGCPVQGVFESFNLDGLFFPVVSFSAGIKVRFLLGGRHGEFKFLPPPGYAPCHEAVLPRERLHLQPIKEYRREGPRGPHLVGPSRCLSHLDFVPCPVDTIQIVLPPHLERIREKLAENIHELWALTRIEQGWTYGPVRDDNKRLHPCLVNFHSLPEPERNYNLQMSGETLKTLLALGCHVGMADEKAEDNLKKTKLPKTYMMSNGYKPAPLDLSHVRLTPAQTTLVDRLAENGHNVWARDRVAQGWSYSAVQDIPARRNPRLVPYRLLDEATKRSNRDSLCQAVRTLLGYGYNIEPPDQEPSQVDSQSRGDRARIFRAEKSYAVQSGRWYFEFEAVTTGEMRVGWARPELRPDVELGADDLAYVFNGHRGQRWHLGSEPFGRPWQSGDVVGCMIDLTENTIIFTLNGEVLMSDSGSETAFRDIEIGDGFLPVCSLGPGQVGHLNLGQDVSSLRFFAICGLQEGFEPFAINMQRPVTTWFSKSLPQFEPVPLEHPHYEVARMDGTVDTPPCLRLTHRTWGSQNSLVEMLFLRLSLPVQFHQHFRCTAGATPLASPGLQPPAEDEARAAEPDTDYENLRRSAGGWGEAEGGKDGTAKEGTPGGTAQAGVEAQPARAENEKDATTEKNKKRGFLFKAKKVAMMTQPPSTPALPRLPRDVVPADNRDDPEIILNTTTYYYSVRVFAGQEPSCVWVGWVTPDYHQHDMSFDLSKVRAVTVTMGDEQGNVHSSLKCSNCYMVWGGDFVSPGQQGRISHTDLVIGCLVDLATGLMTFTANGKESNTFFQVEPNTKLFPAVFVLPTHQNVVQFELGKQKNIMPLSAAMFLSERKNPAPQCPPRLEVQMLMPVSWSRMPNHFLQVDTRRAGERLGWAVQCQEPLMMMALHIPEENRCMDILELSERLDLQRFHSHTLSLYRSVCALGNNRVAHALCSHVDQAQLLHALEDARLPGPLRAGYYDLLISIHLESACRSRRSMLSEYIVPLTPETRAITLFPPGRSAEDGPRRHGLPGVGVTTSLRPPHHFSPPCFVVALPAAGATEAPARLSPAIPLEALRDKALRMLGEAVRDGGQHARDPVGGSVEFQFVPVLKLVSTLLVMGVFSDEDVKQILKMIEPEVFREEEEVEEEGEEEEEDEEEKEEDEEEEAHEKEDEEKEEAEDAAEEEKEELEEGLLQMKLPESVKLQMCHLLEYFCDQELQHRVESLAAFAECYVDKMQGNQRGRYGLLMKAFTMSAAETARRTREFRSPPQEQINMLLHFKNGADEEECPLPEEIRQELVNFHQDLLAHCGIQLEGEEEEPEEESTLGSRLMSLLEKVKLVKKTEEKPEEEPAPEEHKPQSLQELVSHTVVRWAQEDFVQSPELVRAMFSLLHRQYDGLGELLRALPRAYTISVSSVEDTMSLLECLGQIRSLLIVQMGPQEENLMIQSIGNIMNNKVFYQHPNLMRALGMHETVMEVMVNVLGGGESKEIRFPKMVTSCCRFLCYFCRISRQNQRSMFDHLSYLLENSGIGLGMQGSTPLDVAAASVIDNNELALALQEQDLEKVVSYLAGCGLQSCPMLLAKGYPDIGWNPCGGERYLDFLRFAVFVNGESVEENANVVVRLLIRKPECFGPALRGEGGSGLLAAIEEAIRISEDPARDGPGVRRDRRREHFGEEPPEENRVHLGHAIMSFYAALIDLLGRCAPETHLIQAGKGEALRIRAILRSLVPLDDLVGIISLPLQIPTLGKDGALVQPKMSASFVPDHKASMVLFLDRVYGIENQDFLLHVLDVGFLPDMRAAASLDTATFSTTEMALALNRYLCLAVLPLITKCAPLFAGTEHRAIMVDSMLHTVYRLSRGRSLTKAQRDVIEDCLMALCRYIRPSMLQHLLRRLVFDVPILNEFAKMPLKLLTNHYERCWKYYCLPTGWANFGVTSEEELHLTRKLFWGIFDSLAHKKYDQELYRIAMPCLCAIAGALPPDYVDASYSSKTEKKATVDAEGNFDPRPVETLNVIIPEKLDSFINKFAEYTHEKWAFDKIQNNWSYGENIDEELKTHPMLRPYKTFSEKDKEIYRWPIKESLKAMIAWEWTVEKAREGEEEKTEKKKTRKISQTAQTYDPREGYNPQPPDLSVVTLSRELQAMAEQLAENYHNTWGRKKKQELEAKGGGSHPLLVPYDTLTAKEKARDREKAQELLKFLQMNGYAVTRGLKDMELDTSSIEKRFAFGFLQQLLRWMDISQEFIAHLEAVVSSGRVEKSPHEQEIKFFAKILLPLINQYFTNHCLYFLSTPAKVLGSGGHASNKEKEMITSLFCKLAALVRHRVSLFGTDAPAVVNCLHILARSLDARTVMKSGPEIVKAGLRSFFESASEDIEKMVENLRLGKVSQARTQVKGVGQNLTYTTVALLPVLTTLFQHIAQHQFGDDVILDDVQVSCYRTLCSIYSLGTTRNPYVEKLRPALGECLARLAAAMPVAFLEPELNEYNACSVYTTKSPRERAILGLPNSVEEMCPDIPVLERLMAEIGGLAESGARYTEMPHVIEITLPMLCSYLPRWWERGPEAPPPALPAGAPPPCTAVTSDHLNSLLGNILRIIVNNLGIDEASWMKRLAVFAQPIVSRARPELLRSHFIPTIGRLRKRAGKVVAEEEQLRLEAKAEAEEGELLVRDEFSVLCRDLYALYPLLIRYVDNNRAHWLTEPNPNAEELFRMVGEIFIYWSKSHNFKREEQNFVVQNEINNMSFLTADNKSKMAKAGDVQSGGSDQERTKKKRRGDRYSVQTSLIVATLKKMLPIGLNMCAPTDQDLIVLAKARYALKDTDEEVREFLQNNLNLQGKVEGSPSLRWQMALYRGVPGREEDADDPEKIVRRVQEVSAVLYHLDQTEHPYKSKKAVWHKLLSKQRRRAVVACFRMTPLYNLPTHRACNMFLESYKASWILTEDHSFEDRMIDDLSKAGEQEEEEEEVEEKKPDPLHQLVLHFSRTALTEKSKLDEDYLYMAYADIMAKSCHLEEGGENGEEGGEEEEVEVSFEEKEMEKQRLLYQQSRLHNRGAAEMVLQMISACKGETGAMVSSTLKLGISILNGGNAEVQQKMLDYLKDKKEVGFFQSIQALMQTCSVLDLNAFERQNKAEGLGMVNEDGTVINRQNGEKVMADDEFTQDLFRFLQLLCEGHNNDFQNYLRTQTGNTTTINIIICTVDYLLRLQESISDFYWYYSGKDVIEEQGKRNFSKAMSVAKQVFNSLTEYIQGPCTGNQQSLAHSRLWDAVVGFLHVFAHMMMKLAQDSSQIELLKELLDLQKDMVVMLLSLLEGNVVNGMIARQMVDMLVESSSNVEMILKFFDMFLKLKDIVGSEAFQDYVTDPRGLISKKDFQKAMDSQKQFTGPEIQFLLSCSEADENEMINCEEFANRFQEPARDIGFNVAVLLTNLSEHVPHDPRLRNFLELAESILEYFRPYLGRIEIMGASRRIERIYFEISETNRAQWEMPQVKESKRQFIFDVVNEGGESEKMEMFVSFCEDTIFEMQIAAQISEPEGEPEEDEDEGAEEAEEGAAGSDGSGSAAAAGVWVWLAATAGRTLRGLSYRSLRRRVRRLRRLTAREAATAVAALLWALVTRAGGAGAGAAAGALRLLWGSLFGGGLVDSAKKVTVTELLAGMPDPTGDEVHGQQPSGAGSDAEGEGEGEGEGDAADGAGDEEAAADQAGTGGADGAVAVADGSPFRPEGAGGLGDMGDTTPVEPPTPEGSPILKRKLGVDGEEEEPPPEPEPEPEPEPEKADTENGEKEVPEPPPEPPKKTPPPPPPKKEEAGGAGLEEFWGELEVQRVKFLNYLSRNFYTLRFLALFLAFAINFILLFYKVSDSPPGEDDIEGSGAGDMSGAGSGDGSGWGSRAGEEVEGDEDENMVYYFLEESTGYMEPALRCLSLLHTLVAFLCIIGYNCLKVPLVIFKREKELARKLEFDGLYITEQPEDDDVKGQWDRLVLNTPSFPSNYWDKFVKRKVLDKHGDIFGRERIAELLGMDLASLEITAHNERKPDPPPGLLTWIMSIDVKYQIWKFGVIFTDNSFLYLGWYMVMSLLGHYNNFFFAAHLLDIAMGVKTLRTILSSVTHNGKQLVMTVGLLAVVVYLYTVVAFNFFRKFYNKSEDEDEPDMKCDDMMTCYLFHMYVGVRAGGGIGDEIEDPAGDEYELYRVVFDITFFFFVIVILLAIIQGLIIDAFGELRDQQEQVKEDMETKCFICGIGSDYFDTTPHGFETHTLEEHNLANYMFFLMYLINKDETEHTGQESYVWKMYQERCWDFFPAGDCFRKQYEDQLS
T1 sequence (P26883 2-108 partner limits assumed): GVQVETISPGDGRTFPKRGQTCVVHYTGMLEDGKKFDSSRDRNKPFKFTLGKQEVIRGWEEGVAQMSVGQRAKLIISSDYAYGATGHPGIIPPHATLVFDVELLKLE

Question: What does the source list for COc1ccc2c(c1)CN(Cc1ccc(C(=O)O)cc1)CCS2 [Compound 1, 4-((7-Methoxy-2,3-dihydrobenzo[f][1,4]thiazepin-4(5H)-yl)methyl)benzoic acid]?
Answer: travel distance on voluntary wheel (WT mice): No effect; specific muscle force (EDL) (WT mice; 4 weeks): No effect; levels of calstabin1 bound to RyR1 in skeletal muscle (RyR1): enhanced levels of calstabin1 bound to RyR1

Source: patent US20130281512A1, “AGENTS FOR TREATING DISORDERS INVOLVING MODULATION OF RYANODINE RECEPTORS” (LES LABORATOIRES SERVIER, priority 2012, published 2013)
